{
  "source": "patent US20230173005A1",
  "about": "(ASIA UNIVERSITY, priority 2021, published 2023)",
  "key": {"[1]": {"system": "mouse model of the acute renal failure induced by cisplatin", "test": "Weight measurement in cisplatin-induced mice", "format": "in vivo", "conditions": "Amifostine 200 mg/kg i.p. 30 min after cisplatin 20 mg/Kg day 7", "experimental": "(§1) Male ICR mice aged 7-8 weeks (each weighing about 30-32 grams) were divided into 6 groups, 10 mice per group, and the six groups correspond to a control group, an induction group, a positive control group and low-medium-high dose brown Flammulina velutipes water extract groups. The entire process was limited to 10 days. […] Both of the induction and the sacrifice were performed in a fasting state.\n(§2) The administration was performed for 10 consecutive days while feeding at around 10 a.m. Normal food was provided during the above period. […] On the day before induction, all […] groups were treated on an empty stomach."}, "[2]": {"system": "mouse model of the acute renal failure induced by cisplatin", "test": "Measurement on kidney weight/body weight ratio", "format": "in vivo", "conditions": "Amifostine 200 mg/kg i.p. 30 min after cisplatin 20 mg/Kg day 7", "experimental": "as §1, §2\nKidneys were removed from the mouse body, and adrenal glands and surrounding fat were removed, washed with saline and then weighed immediately. The weights of the both kidneys were obtained and compared with the weight of the mouse measured on the last day, and the difference between the kidney/weight ratios of the mice was calculated."}, "iNOS": {"system": "iNOS", "test": "Western blotting of kidney, iNOS", "format": "in vivo, mouse", "experimental": "as §1, §2\n(§3) The kidneys were homogenized with a PBS solution and diluted 10 folds to form a homogeneous solution, and the homogeneous solution was centrifuged at 12,000 rpm at 4° C. for 20 minutes. The supernatant was taken to quantify each protein concentration, and treated to have a uniform concentration. A protein was added to a protein dye to form a sample, placed in a drying bath at 100° C., and heated for 5 minutes. Then, the sample was injected into 10%, 15% or 8% of colloid prepared with 40% of acrylamide/bisN,N-methylenbisacrylamide, in which the ratio of acrylamide to bisN,N-methylenbisacrylamide was 29:1. […]\n(§4) After completion of the transfer, blocking was performed for 1 hour using milk. […] In addition, image data were acquired and analyzed by the Image J system."}, "COX-2": {"system": "COX-2", "test": "Western blotting of kidney, COX-2", "format": "in vivo, mouse", "experimental": "as §1, §2, §3, §4"}, "TLR4": {"system": "TLR4", "test": "Western blotting of kidney, TLR4", "format": "in vivo, mouse", "experimental": "as §1, §2, §3, §4"}, "p-NFκB": {"system": "p-NFκB", "test": "Western blotting of kidney, p-NFκB", "format": "in vivo, mouse", "experimental": "as §1, §2, §3, §4"}, "[3]": {"system": "superoxide dismutase (SOD)", "test": "Western blotting of kidney, SOD", "format": "in vivo, mouse", "experimental": "as §1, §2, §3, §4"}, "catalase": {"system": "catalase", "format": "in vivo, mouse", "conditions": "kidney; Amifostine 200 mg/Kg i.p. or WFV 1000 mg/kg oral in advance", "experimental": "as §1, §2, §3, §4"}, "[4]": {"system": "glutathione peroxidase (GPX1)", "test": "Western blotting of kidney, GPX1", "format": "in vivo, mouse", "experimental": "as §1, §2, §3, §4"}, "Bcl-2": {"system": "Bcl-2", "test": "Western blotting of kidney, Bcl-2", "format": "in vivo, mouse", "experimental": "as §1, §2, §3, §4"}, "BAX": {"system": "BAX", "test": "Western blotting of kidney, BAX", "format": "in vivo, mouse", "experimental": "as §1, §2, §3, §4"}, "NO free radicals": {"system": "NO free radicals", "test": "Nitrite analysis of mouse serum", "format": "in vivo", "conditions": "cisplatin 20 mg/Kg i.p.", "experimental": "as §1, §2\nMouse serum was taken by 100 μL each and added to a new 96-well microassay plate. Then, Griess Reagent was added by the same amount of […]. The Griess reagent was obtained by mixing an aqueous solution of N-(1-naphthyl)ethylenediamine with a 1% sulfanilamide solution dissolved in 5% phosphoric acid in the volumetric ratio of 1:1. Thereafter, the absorbance was measured at a wavelength of 540 nm using a microplate spectrometer (Molecular Devices), so that the ability of removing NO free radicals was measured in each group."}, "TNF-α": {"system": "TNF-α", "test": "Cytokine analysis (ELISA), TNF-α", "format": "in vivo, mouse", "conditions": "serum ELISA; cisplatin 20 mg/Kg i.p. vs control group", "experimental": "as §1, §2\n(§5) After sacrificing the mice to collect corresponding blood, and serum was separated and then diluted 10-fold or 5-fold. TNF-α, IL-6 and IL-1β were analyzed according to the multiple antibody sandwich principle by using BioLegend Company's ELISA kits.\n(§6) In a 96-well microassay plate, 100 μL of capture antibody was added to each well, and placed at room temperature overnight. […] Finally, 2 equivalents of 100 μL of sulfuric acid as a stop solution was added, and the change in absorbance at a wavelength of 450 nm was measured with a microplate spectrometer. The concentration of cytokines in serum was additionally calculated."}, "IL-1β": {"system": "IL-1β", "test": "Cytokine analysis (ELISA), IL-1β", "format": "in vivo, mouse", "conditions": "serum ELISA; cisplatin 20 mg/Kg i.p. vs control group", "experimental": "as §1, §2, §5, §6"}, "IL-6": {"system": "IL-6", "test": "Cytokine analysis (ELISA), IL-6", "format": "in vivo, mouse", "conditions": "serum ELISA; cisplatin 20 mg/Kg i.p. vs control group", "experimental": "as §1, §2, §5, §6"}, "Nrf2": {"system": "Nrf2", "test": "Western blotting of kidney, Nrf2", "format": "in vivo, mouse", "conditions": "cisplatin 20 mg/Kg i.p. vs control group", "experimental": "as §1, §2, §3, §4"}, "HO-1": {"system": "HO-1", "test": "Western blotting of kidney, HO-1", "format": "in vivo, mouse", "conditions": "cisplatin 20 mg/Kg i.p. vs control group", "experimental": "as §1, §2, §3, §4"}, "LC3B": {"system": "LC3B", "test": "Western blotting of kidney, LC3B", "format": "in vivo, mouse", "conditions": "cisplatin 20 mg/Kg i.p. vs control group", "experimental": "as §1, §2, §3, §4"}, "p62": {"system": "p62", "test": "Western blotting of kidney, p62", "format": "in vivo, mouse", "conditions": "cisplatin 20 mg/Kg i.p. vs control group", "experimental": "as §1, §2, §3, §4"}, "Beclin-1": {"system": "Beclin-1", "test": "Western blotting of kidney, Beclin-1", "format": "in vivo, mouse", "conditions": "cisplatin 20 mg/Kg i.p. vs control group", "experimental": "as §1, §2, §3, §4"}, "PI3K": {"system": "PI3K", "test": "Western blotting of kidney, PI3K", "format": "in vivo, mouse", "conditions": "cisplatin 20 mg/Kg i.p. vs control group", "experimental": "as §1, §2, §3, §4"}, "AKT": {"system": "AKT", "test": "Western blotting of kidney, AKT", "format": "in vivo, mouse", "conditions": "cisplatin 20 mg/Kg i.p. vs control group", "experimental": "as §1, §2, §3, §4"}, "[5]": {"conditions": "Amifostine 200 mg/Kg i.p. or high-dose WFV (1000 mg/Kg oral) vs cisplatin induction group"}, "[6]": {"conditions": "Amifostine 200 mg/Kg i.p. or WFV 1000 mg/kg oral in advance"}, "[7]": {"conditions": "Amifostine 200 mg/Kg i.p. or high-dose WFV (1000 mg/Kg oral) vs induction group"}, "[8]": {"conditions": "cisplatin 20 mg/Kg i.p. vs control group"}},
  "data": [
    {"smiles": "NCCCNCCSP(=O)(O)O", "note": "[Ami, Amifostine]", "values": [
      {"measurement": "Body weight After", "setting": "[1]", "result": "36.6 ± 0.18", "unit": "g"},
      {"measurement": "Kidney weight", "setting": "[2]", "result": "0.55 ± 0.025", "unit": "g"},
      {"measurement": "expression level of iNOS", "setting": "iNOS; [5]", "result": "decreased"},
      {"measurement": "expression level of COX-2", "setting": "COX-2; [5]", "result": "decreased"},
      {"measurement": "expression level of TLR4", "setting": "TLR4; [5]", "result": "decreased"},
      {"measurement": "expression level of p-NFκB", "setting": "p-NFκB; [5]", "result": "decreased"},
      {"measurement": "expression level of SOD", "setting": "[3]; [6]", "result": "not decreased"},
      {"measurement": "expression level of catalase", "setting": "catalase", "result": "not decreased"},
      {"measurement": "expression level of GPX1", "setting": "[4]; [6]", "result": "not decreased"},
      {"measurement": "expression level of Bcl-2", "setting": "Bcl-2; [7]", "result": "increased"},
      {"measurement": "expression level of apoptogenic protein BAX", "setting": "BAX; [7]", "result": "significantly decreased"}
    ]},
    {"smiles": "N.N.[Cl][Pt][Cl]", "note": "[Cis, cisplatin]", "values": [
      {"measurement": "expression level of NO free radicals (nitrite in serum)", "setting": "NO free radicals", "result": "increased remarkably"},
      {"measurement": "concentration of TNF-α", "setting": "TNF-α", "result": "increased"},
      {"measurement": "concentration of IL-1β", "setting": "IL-1β", "result": "increased"},
      {"measurement": "concentration of IL-6", "setting": "IL-6", "result": "increased"},
      {"measurement": "expression level of iNOS", "setting": "iNOS; [8]", "result": "significant differences compared with the control group"},
      {"measurement": "expression level of COX-2", "setting": "COX-2; [8]", "result": "significant differences compared with the control group"},
      {"measurement": "expression level of TLR4", "setting": "TLR4; [8]", "result": "upward trend"},
      {"measurement": "expression level of p-NFκB", "setting": "p-NFκB; [8]", "result": "upward trend"},
      {"measurement": "expression level of SOD", "setting": "[3]; [8]", "result": "decreased"},
      {"measurement": "expression level of GPX1", "setting": "[4]; [8]", "result": "decreased"},
      {"measurement": "expression level of Nrf2", "setting": "Nrf2", "result": "significantly increased"},
      {"measurement": "expression level of HO-1", "setting": "HO-1", "result": "significantly increased"},
      {"measurement": "expression level of Bcl-2", "setting": "Bcl-2; [8]", "result": "decreased"},
      {"measurement": "expression level of apoptogenic protein BAX", "setting": "BAX; [8]", "result": "increased"},
      {"measurement": "level of LC3B", "setting": "LC3B", "result": "significantly increased"},
      {"measurement": "level of p62", "setting": "p62", "result": "significantly increased"},
      {"measurement": "level of Beclin-1", "setting": "Beclin-1", "result": "significantly increased"},
      {"measurement": "expression level of PI3K", "setting": "PI3K", "result": "significantly increased"},
      {"measurement": "expression level of AKT", "setting": "AKT", "result": "significantly increased"}
    ]}
  ]
}
